From patent US7265139B2, “RXR activating molecules” (Incyte San Diego Inc., priority 2001, dated 2007)

Columns and labels:
[1] = tested on: BALB/c mice; assay: Effect on serum triglyceride levels in wild type BALB/c mice; assay type: in vivo, mouse; conditions: FIG. 12
Method: The animals were treated with a single daily oral dose of the test compound suspended in sesame oil (dose volume of 5 ml/kg). […], Animas treated with 10 and 30 mg/kg of Compound 1, which are doses that are 30 and 100 times the efficacious does in diabetic db/db mice, respectively, caused no increase in serum triglyceride levels compared to vehicle treated control animals.
Test compounds are tested in wild type mice at 10-100 times the efficacious dose in diabetic mice. Typically, adult male BALB/c mice are housed in a fixed 12—12-hr artificial light-dark cycle, and maintained on a standard rodent diet. The animals are treated with a single daily oral dose of the test compound suspended in sesame oil (dose volume of 5 ml/kg) as also described in the examples. Approximately two weeks later the animals are bled from the tail vein, then necropsied following sacrifice by carbon dioxide asphyxiation. Several serum biochemical parameters are measured. Of special significance is the effect the selected compounds have on serum triglyceride levels compared to vehicle treated control animals.
For these studies, adult male BALB/c mice were housed in a fixed 12—12-hr artificial light-dark cycle, and maintained on a standard rodent diet. The animals were treated with a single daily oral dose of the test compound suspended in sesame oil (dose volume of 5 ml/kg).

[2] = molecular target: T1, RXR receptor (Homo sapiens, UniProt P19793); assay: RXR activation (transient transfection reporter assay); assay type: cell-based; conditions: 1 μM compared to 9-cis-RA at equal concentration
T1 construct: expressed in transfected cells
T1 sequence (P19793 1-462): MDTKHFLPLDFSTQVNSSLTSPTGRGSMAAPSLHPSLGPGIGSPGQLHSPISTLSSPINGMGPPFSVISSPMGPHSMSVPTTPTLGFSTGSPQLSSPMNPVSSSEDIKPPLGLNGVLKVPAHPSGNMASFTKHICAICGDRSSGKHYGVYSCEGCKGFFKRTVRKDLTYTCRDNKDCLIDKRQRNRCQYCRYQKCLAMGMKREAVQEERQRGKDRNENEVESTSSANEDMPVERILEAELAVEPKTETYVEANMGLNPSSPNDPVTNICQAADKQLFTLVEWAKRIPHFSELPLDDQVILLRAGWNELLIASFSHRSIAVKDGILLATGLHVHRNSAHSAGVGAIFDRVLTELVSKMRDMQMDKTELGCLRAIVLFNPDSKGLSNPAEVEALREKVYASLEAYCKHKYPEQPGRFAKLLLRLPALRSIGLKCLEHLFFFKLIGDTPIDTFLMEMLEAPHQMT
Text: RXR agonists activate the RXR receptor when interacting with RXR by binding to its binding pocket. This activation can be independent of whether the agonist, while interacting with portions of the ligand binding pocket, also interacts with side pocket 1. Activation, also often referred to as transcriptional activation, of RXR by agonists can be measured by a number of commonly used assays where the effect of the agonist ligand interacting with the RXR ligand binding pocket is to stimulate or induce transcription of a gene or genes in a cell. In one particular embodiment, transient transfection experiments (as described essentially by Zhang, et al. (1996) Negative Regulation of Peroxisome Proliferator—Activated Receptor—γ Gene Expression Contributes to the Antiadipogenic effects of Tumor Necrosis Factor—α. Mol. Endo. 10:1457-1456) can be used. In these cases, full length RXR proteins are expressed in living cells. Alternatively, hybrid proteins that contain a portion of another DNA binding domain and the ligand binding portion of the human RXRα receptor can be expressed in living cells instead of the full length RXR protein. Such hybrid proteins can bind to and activate specific reporter genes introduced into the same living cell and activation of such reporter genes is measured. The assays described here are very commonly used today by people skilled in the art of molecular biology experimenting. Transient transection assays are often used instead of ligand binding assays and can serve to measure or estimate an affinity of an RXR agonist ligand for RXR protein. The effective dose fifty (ED50, also called EC50) is the concentration of the ligand necessary to lead to one half maximal activation of the reporter gene in a living cell. Compounds that show 60% of the activity of the agonist 9-cis retenoic acid at 10^−6 M can be considered an RXR activator/agonist. Compounds which show 70% 80% 90% of the activity of the agonist 9-cis retinoic acid are also provided.
To confirm that the computer modeling/design of a compound does result in an RXR activator or RXR agonist, i.e. a compound that leads to RXR activation or transcriptional activation, commonly used assays can be applied, where the effect of the agonist or activator, interacting with the RXR ligand binding pocket is to stimulate or induce transcription of a gene or genes in a cell. In one particular embodiment, transient transfection experiments (as described essentially by Zhang, et al. (1996) Negative Regulation of Peroxisome Proliferator—Activated Receptor—γ Gene Expression Contributes to the Antiadipogenic effects of Tumor Necrosis Factor—α. Mol. Endo. 10:1457-1456) can be used. In these cases, full length RXR proteins are expressed in living cells. Alternatively, hybrid proteins that contain a portion of another DNA, binding domain and the ligand binding portion of the human RXRα receptor can be expressed in living cells instead of the fall length RXR protein. Such hybrid proteins can bind to and activate specific reporter genes introduced into the same living cell and activation of such reporter genes is measured (Brand, A. H. & Perrimon, 1993, Development, 118:401-415; Moya-Camarena, S. Y. et.al., 1999, J. Lipid Res., 40:1426:1433; Yi, Y. W. et al., 2000, Biochem. Biophys. Res. Commun., 272:193-198, each are herein incorporated by reference at least for material related to reporter assays). These assays not only measure binding of the ligand to its target, which could also be measured by an in vitro binding assay, but also measure the agonistic or activator activity of the compound. In such an assay, new compounds are compared to a standard activator like compound I or the natural agonist of RXR: 9-cis retinoic acid (see Example 7). For instance, all compounds that show at a given concentration at least 60% of the activity of 9-cis retinoic acid can be considered useful activators.

**Q.** Which “serum triglyceride levels compared to vehicle treated control animals” value ([1]; 10 and 30 mg/kg, daily oral, 14 days) does the source give for `Cc1cc2c(cc1-c1cc(C=C3SC(=O)NC3=O)ccc1OC(F)(F)F)C(C)(C)CCC2(C)C` [Compound 1] here?
**A.** no increase

**Q.** And the “triglyceride levels compared to vehicle treated controls” value ([1]; 10 and 30 mg/kg/day for 10 days)?
**A.** does not change

**Q.** And the “RXR Activation” value [2]?
**A.** 110%
